This note sets out measurements from patent US7674818B2, “Aryl, aryloxy, alkyloxy substituted 1H-indol-3-yl glyoxylic acid derivatives as inhibitors of plasminogen activator inhibitor-1 (PAI-1)” (Wyeth LLC, priority 2002, dated 2010).

Series [1] deals with T1, recombinant human plasminogen activator inhibitor-1 (Homo sapiens, UniProt P05121).
T1 construct: purchased Molecular Innovations, Royal Oak, Mich
In words: Primary screen for the PAI-1 inhibition (residual tPA activity, Spectrozyme-tPA chromogenic substrate). The series is classed as biochemical. The conditions noted are these: pH 6.6 buffer, 140 nM PAI-1, 70 nM tPA; for Inhibition (%) (100 uM): test compound 100 uM (cell annotated "(100 uM)" instead of 25 uM); for inhibition at 25 µM / Inhibition @25 uM (%): test compound 25 uM. The protocol: Primary Screen for the PAI-1 Inhibition
Test compounds were dissolved in DMSO at a final concentration of 10 mM, then diluted 100× in physiologic buffer. The inhibitory assay was initiated by the addition of the test compound (1-100 μM final concentration, maximum DMSO concentration of 0.2%) in a pH 6.6 buffer containing 140 nM recombinant human plasminogen activator inhibitor-1 (Molecular Innovations, Royal Oak, Mich.). Following a 1 hour incubation at room temperature, 70 nM of recombinant human tissue plasminogen activator (tPA) was added, and the combination of the test compound, PAI-1 and tPA was incubated for an additional 30 minutes. Following the second incubation, Spectrozyme-tPA (American Diagnostica, Greenwich, Conn.), a chromogenic substrate for tPA, was added and absorbance read at 405 nm at 0 and 60 minutes. Relative PAI-1 inhibition was equal to the residual tPA activity in the presence of the test compound and PAI-1. Control treatments included the complete inhibition of tPA by PAI-1 at the molar ratio employed (2:1), and the absence of any effect of the test compound on tPA alone.

For another series, the target named is human PAI-1 (Homo sapiens, UniProt P05121). In words: Assay for determining IC50 of inhibition of PAI-1 (active PAI-1 bound to tPA-coated plate, 33B8 antibody detection). Format: biochemical. The conditions noted are these: human PAI-1 50 ng/ml, pH 7.5, tPA-coated plate. The protocol: Assay for Determining IC50 OF Inhibition of PAI-1
This assay was based upon the non-SDS dissociable interaction between tPA and active PAI-1. Assay plates were initially coated with human tPA (10 μg/ml). The test compounds were dissolved in DMSO at 10 mM, then diluted with physiologic buffer (pH 7.5) to a final concentration of 1-50 μM. The test compounds were incubated with human PAI-1 (50 ng/ml) for 15 minutes at room temperature. The tPA-coated plate was washed with a solution of 0.05% Tween 20 and 0.1% BSA, then the plate is blocked with a solution of 3% BSA. An aliquot of the test compound/PAI-1 solution was then added to the tPA-coated plate, incubated at room temperature for 1 hour, and washed. Active PAI-1 bound to the plate was assessed by adding an aliquot of a 1:1000 dilution of the 33B8 monoclonal antibody against human PAI-1, and incubating the plate at room temperature for 1 hour (Molecular Innovations, Royal Oak, Mich.). The plate was again washed, and a solution of goat anti-mouse IgG-alkaline phosphatase conjugate is added at a 1:50,000 dilution in goat serum. The plate was incubated 30 minutes at room temperature, washed, and a solution of alkaline phosphatase substrate was added. The plate was incubated 45 minutes at room temperature, and color development was determined at OD405 nm. The quantitation of active PAI-1 bound to tPA at varying concentrations of the test compound was used to determine the IC50. Results were analyzed using a logarithmic best-fit equation. The assay sensitivity was 5 ng/ml of human PAI-1 as determined from a standard curve ranging from 0-100 ng/ml.

Bounds are passed on as bounds.

A word on the inhibition: it is the relative decrease from the control value, in per cent. A word on the IC50: it is the concentration at which inhibition is half-maximal. Lower therefore signals higher potency. By melting point is commonly meant the temperature of the solid-liquid transition.

T1 sequence (P05121 24-402): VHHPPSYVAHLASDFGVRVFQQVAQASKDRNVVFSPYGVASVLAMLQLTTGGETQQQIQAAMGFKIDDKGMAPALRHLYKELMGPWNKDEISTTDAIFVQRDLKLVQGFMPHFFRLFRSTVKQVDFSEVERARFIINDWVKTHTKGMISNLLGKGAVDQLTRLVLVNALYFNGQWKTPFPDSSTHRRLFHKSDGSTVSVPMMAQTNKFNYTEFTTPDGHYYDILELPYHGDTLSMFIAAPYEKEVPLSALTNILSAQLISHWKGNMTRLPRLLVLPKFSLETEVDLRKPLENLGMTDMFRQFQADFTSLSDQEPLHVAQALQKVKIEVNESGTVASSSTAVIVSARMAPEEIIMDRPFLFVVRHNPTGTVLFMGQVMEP
human PAI-1, sequence (P05121 24-402): as above

As for “5-[3-(5-Chloro-3-carboxy(oxo)methyl-1H-indol-1-yl)phenoxymethyl]furan-2-carboxylic acid ethyl ester [Example 17]”, the “Inhibition (%) (100 uM)” value in series [1] came out at 49%. As for `N#Cc1ccc(COc2ccc(-n3cc(C(=O)C(=O)O)c4ccccc43)cc2)cc1` [Example 1, (1-{4-[(4-Cyanobenzyl)oxy]phenyl}-1H-indol-3-yl)(oxo)acetic acid], in series [1], the inhibition at 25 µM worked out at 23%. Take `COc1cccc(COc2ccc(-n3cc(C(=O)C(=O)O)c4ccccc43)cc2)c1` [Example 2, {1-[4-(3-Methoxybenzyloxy)phenyl]-1H-indol-3-yl}(oxo)acetic acid]: the inhibition at 25 µM in series [1] came out at 43%.

On to `N#Cc1ccc(COc2ccc(-n3cc(C(=O)C(=O)O)c4cc(F)ccc43)cc2)cc1` [Example 4, {1-[4-(4-Cyanobenzyloxy)phenyl]-5-fluoro-1H-indol-3-yl}(oxo)acetic acid], for which the “Inhibition (%) (100 uM)” value in series [1] was determined as 40%. In the case of `COc1cc(COc2ccc(-n3cc(C(=O)C(=O)O)c4cc(F)ccc43)cc2)cc(OC)c1` [Example 5, {1-[4-(3,5-Dimethoxybenzyloxy)phenyl]-5-fluoro-1H-indol-3-yl}(oxo)acetic acid], the inhibition at 25 µM in series [1] was 26%. As to `Cc1ccc2c(c1)c(C(=O)C(=O)O)cn2-c1ccc(OCc2cccc(Cl)c2)cc1` [Example 6, {1-[4-(3-Chlorobenzyloxy)phenyl]-5-methyl-1H-indol-3-yl}(oxo)acetic acid], the inhibition at 25 µM in series [1] was 54%. Moreover, the IC50 against human PAI-1 is more than 25 µM.

With `Cc1ccc2c(c1)c(C(=O)C(=O)O)cn2-c1ccc(OCc2ccc(C(C)(C)C)cc2)cc1` [Example 7, {1-[4-(4-tert-Butylbenzyloxy)phenyl]-5-methyl-1H-indol-3-yl}(oxo)acetic acid], the inhibition at 25 µM in series [1] was found to be 62%. As for `Cc1ccc2c(c1)c(C(=O)C(=O)O)cn2-c1ccc(OCc2ccc(Cl)cc2Cl)cc1` [Example 8, {1-[4-(2,4-Dichlorobenzyloxy)phenyl]-5-methyl-1H-indol-3-yl}(oxo)acetic acid], the “Inhibition (%) (100 uM)” value in series [1] amounted to 34%. `N#Cc1ccc(COc2cccc(-n3cc(C(=O)C(=O)O)c4cc(Cl)ccc43)c2)cc1` [Example 9, {5-Chloro-1-[3-(4-cyanobenzyloxy)phenyl]-1H-indol-3-yl}(oxo)acetic acid]: the inhibition at 25 µM in series [1] came to 44%.

With `COc1cc(COc2cccc(-n3cc(C(=O)C(=O)O)c4cc(Cl)ccc43)c2)cc(OC)c1` [Example 10, {5-Chloro-1-[3-(3,5-dimethoxybenzyloxy)phenyl]-1H-indol-3-yl}(oxo)acetic acid], the inhibition at 25 µM in series [1] came out at 1%. With `O=C(O)C(=O)c1cn(-c2ccc(OCc3c(F)c(F)c(C(F)(F)F)c(F)c3F)cc2)c2ccccc12` [Example 11, {1-[4-(2,3,5,6-tetrafluoro-4-trifluoromethylbenzyloxy)phenyl]1H-indol-3-yl}(oxo)acetic acid], in series [1], the inhibition at 25 µM worked out at 66%.

With `O=C(O)C(=O)c1cn(-c2ccc(OCc3ccc(-c4csnn4)cc3)cc2)c2ccccc12` [Example 12, {1-[4-(4-[1,2,3]thiadiazol-4-ylbenzyloxy)phenyl]-1H-indol-3-yl}(oxo)acetic acid], in series [1], the “Inhibition (%) (100 uM)” value was 32%. For the molecule `O=C(O)C(=O)c1cn(-c2ccc(OCc3cc(Cl)nc(Cl)c3)cc2)c2ccccc12` [Example 13, {1-[4-(2,6-Dichloropyridin-4-ylmethoxy)phenyl]1H-indol-3-yl}(oxo)acetic acid], in series [1], the inhibition at 25 µM was 39%. As for `CCOC(=O)c1ccc(COc2ccc(-n3cc(C(=O)C(=O)O)c4cc(F)ccc43)cc2)o1` [Example 14, 5-[4-(5-Fluoro-3-carboxy(oxo)methyl-1H-indol-1-yl)phenoxymethyl]furan-2-carboxylic acid ethyl ester], in series [1], the “Inhibition @25 uM (%)” value was found to be 43%.

As for `Cc1ccc2c(c1)c(C(=O)C(=O)O)cn2-c1ccc(OCc2cc(Cl)nc(Cl)c2)cc1` [Example 15, {1-[4-(2,6-dichloropyridin-4-ylmethoxy)phenyl]-5-methyl-1H-indol-3-yl}(oxo)acetic acid], the inhibition at 25 µM in series [1] stood at 5%. `O=C(O)C(=O)c1cn(-c2cccc(OCc3c(F)c(F)c(C(F)(F)F)c(F)c3F)c2)c2ccc(Cl)cc12` [Example 16, {5-Chloro-1-[3-(2,3,5,6-tetrafluoro-4-trifluoromethylbenzyloxy)phenyl]1H-indol-3-yl}(oxo)acetic acid]: the inhibition at 25 µM in series [1] is 75%. On human PAI-1, this molecule had an IC50 of more than 25 µM.

On to `O=C(O)C(=O)c1cn(-c2cccc(OCc3ccc(-c4csnn4)cc3)c2)c2ccc(Cl)cc12` [Example 18, {5-Chloro-1-[3-(4-[1,2,3]thiadiazol-4-ylbenzyloxy)phenyl]-1H-indol-3-yl}(oxo)acetic acid], for which the inhibition at 25 µM in series [1] was determined as 45%. Still for that read-out and setting: the value for `O=C(O)C(=O)c1cn(-c2cccc(OCc3cc(Cl)nc(Cl)c3)c2)c2ccc(Cl)cc12` [Example 19, {5-Chloro-1-[3-(2,6-dichloropyridin-4-ylmethoxy)phenyl]-1H-indol-3-yl}(oxo)acetic acid] was 46%. On to `O=C(O)C(=O)c1cn(-c2ccc(OC(F)(F)F)cc2)c2ccc(-c3ccc(OC(F)(F)F)cc3)cc12` [Example 20, [1,5-Bis-(4-trifluoromethoxy-phenyl)-1H-indol-3-yl]-oxo-acetic acid], for which, in series [1], the inhibition at 25 µM turned out to be 56%. The half-maximal inhibitory concentration (IC50) at human PAI-1 is more than 25 µM. `O=C(O)C(=O)c1cn(Cc2ccc(F)cc2)c2ccc(OCCc3ccc(F)cc3)cc12` [Example 21] showed a melting point of 171 to 173 °C. Further, in series [1], the inhibition at 25 µM was determined as 6%. Consider `O=C(O)C(=O)c1cn(Cc2ccccc2)c2ccc(OCc3ccccc3)cc12` [Example 22, (1-Benzyl-5-benzyloxy-1H-indol-3-yl)-oxo-acetic acid], for which the inhibition at 25 µM in series [1] stood at 13%.

`O=C(O)C(=O)c1cn(Cc2ccccc2)c2ccc(Oc3ccc(C(F)(F)F)cc3Cl)cc12` [Example 23, [1-Benzyl-5-(2-chloro-4-trifluoromethyl-phenoxy)-1H-indol-3-yl](oxo)acetic acid] had a melting point of 152 to 154 °C. In series [1], the inhibition at 25 µM is 52%. Further, 12.3 µM corresponded to half-maximal inhibition against human PAI-1 (IC50).

In the case of `C=CCOc1ccc2c(c1)c(C(=O)C(=O)O)cn2CC1CCC1` [Example 24, (5-Allyloxy-1-cyclobutylmethyl-1H-indol-3-yl)-oxo-acetic acid], in series [1], the “Inhibition (%) (100 uM)” value was found to be 13%. Still for that read-out and setting: next, `C=CCOc1ccc2c(c1)c(C(=O)C(=O)O)cn2CCc1ccccc1` [Example 25, (5-Allyloxy-1-phenethyl-1H-indol-3-yl)-oxo-acetic acid]: 8%; `C=CCOc1ccc2c(c1)c(C(=O)C(=O)O)cn2Cc1ccc2c(c1)OCO2` [Example 26, (5-Allyloxy-1-benzo[1,3]dioxol-5-ylmethyl-1H-indol-3-yl)-oxo-acetic acid]: 8%; `C=CCOc1ccc2c(c1)c(C(=O)C(=O)O)cn2CCc1ccc(OC)cc1` [Example 27, {5-Allyloxy-1-[2-(4-methoxy-phenyl)-ethyl]-1H-indol-3-yl}-oxo-acetic acid]: 16%. As to `C=CCOc1ccc2c(c1)c(C(=O)C(=O)O)cn2CCc1cccc2ccccc12` [Example 28, [5-Allyloxy-1-(2-naphthalen-1-yl-ethyl)-1H-indol-3-yl]-oxo-acetic acid], in series [1], the inhibition at 25 µM was 12%. On to `C=CCOc1ccc2c(c1)c(C(=O)C(=O)O)cn2CCc1cccc(C(F)(F)F)c1` [Example 29, {5-Allyloxy-1-[2-(3-trifluoromethylphenyl)-ethyl]-1H-indol-3-yl}-oxo-acetic acid], for which the “Inhibition (%) (100 uM)” value in series [1] is reported as 29%.

Consider `C=CCOc1ccc2c(c1)c(C(=O)C(=O)O)cn2CCc1ccc(Br)cc1` [Example 30, {5-Allyloxy-1-[2-(4-bromophenyl)-ethyl]-1H-indol-3-yl}-oxo-acetic acid], for which the inhibition at 25 µM in series [1] is 29%.

With “{1-[4-(3-Chlorobenzyloxy) phenyl]-1H-indol-3-yl}(oxo)acetic acid [Example 3]”, the “Inhibition @25 uM (%)” value in series [1] is 78%. The IC50 against human PAI-1 was more than 25 µM.
